Where “and” joins values, the source holds several entries; their conditions need not be identical. Equal entries are not always repeated.
Legend:
[1] = Stability of crystalline material under warm humid conditions (40° C., 75% relative humidity), PXRD before and after; assay type: physicochemical; details: for PXRD pattern after storage compared with initial pattern: after 2 months at 75% relative humidity and 40° C.; for Stable?: stored at 40° C., 75% relative humidity, stable = retained crystal form for at least two weeks by PXRD
Experimental: The stability of these compounds under warm humid conditions was assessed as follows:
The crystalline material was stored at 40° C. in an atmosphere of 75% relative humidity.
Compounds were classed as stable if they retained their crystal form for at least two weeks as verified by examination of PXRD patterns collected before and after exposure to humidity.
It can be seen that the pattern obtained after 2 months at 75% relative humidity and 40° C. (upper trace) in this case is different.

[2] = Bioavailability in vivo in rats: lithium in plasma and brain by ICP-OES after oral administration; details: for BRAIN CONC., Time(h) 2.00 / PLASMA CONC, Time(h) 2.00: 2 h; for BRAIN CONC., Time(h) 2.00 / BRAIN CONC., Time(h) 24.00 / BRAIN CONC., Time(h) 48.00 / BRAIN CONC., Time(h) 72.00: lithium in brain; for BRAIN CONC., Time(h) 2.00 / PLASMA CONC, Time(h) 2.00 / BRAIN CONC., Time(h) 24.00 / PLASMA CONC, Time(h) 24.00 / BRAIN CONC., Time(h) 48.00 / PLASMA CONC, Time(h) 48.00 / BRAIN CONC., Time(h) 72.00 / PLASMA CONC, Time(h) 72.00: individual rats (three per time); for PLASMA CONC, Time(h) 2.00 / PLASMA CONC, Time(h) 24.00 / PLASMA CONC, Time(h) 48.00 / PLASMA CONC, Time(h) 72.00: lithium in plasma; for BRAIN CONC., Time(h) 24.00 / PLASMA CONC, Time(h) 24.00: 24 h; for BRAIN CONC., Time(h) 48.00 / PLASMA CONC, Time(h) 48.00: 48 h; for BRAIN CONC., Time(h) 72.00 / PLASMA CONC, Time(h) 72.00: 72 h
Experimental: Male Sprague-Dawley rats, weighing 240-290 g, were treated through gastric intubation with formulations of lithium and compared with lithium carbonate as a reference. For each formulation a group of 12 rats was treated. 4 mEq/kg of lithium were orally administered, after suspension in 2 mL of corn seeds oil (“Olio Cuore”).
Four intervals' post-administration time (2, 24, 48 and 72 hours) were considered and three rats for each of them, employing the protocol used by Zaworotko and coworkers (Smith et al., Mol. Pharmaceutics 2013, 10, 4728-4738). At each time interval blood samples were collected through intra-cardiac […], these were treated with 50 μL of sodium heparin and centrifuged for 10 min at 1600 rpm. Plasma samples of approximately […] each were thus obtained. The brain was explanted in toto with perfusion with phosphate buffered saline (PBS) in order to preserve it in a viable state. The plasma and brain samples were immediately frozen at a temperature of −80° C., after measuring the weight of the brains.
In order to determine the concentration of the lithium by means of the ICP-OES (Inductively Coupled Plasma Optical Emission Spectometry) analysis, plasma and brain samples were purified and mineralized, respectively to obtain solutions suitable for analysis.
A 0.5 mL aliquot was taken from each sample, to which were added equal amounts of MilliQ water and concentrated nitric acid, in order to bring the lithium ion in solution in the form of LiNO3 and to obtain the precipitation of the proteins. At this point, each sample was sonicated for 10 min in an ultrasonic bath and diluted to a volume of 5.0 mL.
All samples were subjected to centrifugation for a period of 40 min, at a rotational speed of 6000 rpm, to obtain complete plasma proteins/solution separation. At the end supernatant liquid containing lithium was diluted to a final volume of 15 mL by adding MilliQ water. The obtained solutions were stored at a temperature of 4° C. until analysis.
The purpose of this phase was to obtain liquid samples, suitable to ICP-OES analysis, containing lithium in solution, starting from the solid organic tissue of the brain. The mineralization process allows the complete degradation of organic substances until the total transformation into simple inorganic substances.
The first operation performed was that the drying of the fabric, obtained through the use of a digester open PerkinElmer SPB 100-12: each sample of brain has been inserted in special containers Digitube™ 100 mL and maintained at a temperature of 80° C. for 120 min.
The second step involved the mineralization true and proper brain: each sample were added to 10 mL of concentrated nitric acid and 1.0 mL of hydrogen peroxide, then the system was brought to a temperature of 120° C. for 120 min. until the complete mineralization. With this procedure you get the desired biological degradation of organic compounds and the consequent passage of lithium in solution. The solutions thus obtained were collected, brought to a final volume of 20 mL with MilliQ water and preserved at a temperature of 4° C. until time of analysis.
In order to obtain the determination of lithium ion concentrations in the samples previously prepared, optical emission spectrometry inductively coupled plasma ICP-OES was used (PerkinElmer Optima 8000 spectrometer).
The analysis was conducted at the fixed wavelength of lithium (λ=670.784 nm) and the intensity of the radiation emitted by each sample was measured and compared standard solutions.
Plasma and brain concentration data were processed using a non-compartmental approach using WinNonlin® software (Pharsight Corporation, USA) and Microsoft Excel XP (Microsoft Corporation, […]).

[3] = rat brain, 4 mEq/kg lithium oral, non-compartmental
[4] = rat brain, 4 mEq/kg lithium oral, terminal phase
[5] = rat brain, 4 mEq/kg lithium oral, time 0 to last quantifiable point
[6] = rat brain, relative to lithium carbonate
[7] = rat plasma, 4 mEq/kg lithium oral, non-compartmental
[8] = rat plasma, 4 mEq/kg lithium oral, terminal phase
[9] = rat plasma, relative to lithium carbonate

COc1ccccc1C(=O)[O-].O=C(O)[C@@H]1CCCN1.[Li+] [Compound 1, [Li(2-methoxybenzoate)(L-proline)]n]
PXRD pattern after storage compared with initial pattern [1]: substantially identical
Stable? [1]: Yes
Cmax (brain) [2, 3]: 3.5067 µg/g
Tmax (brain) [2, 3]: 24 h
t½_Lambda_z (brain) [2, 4]: 18.9045 h
AUClast (brain) [2, 5]: 172.2533 mg·h/g
Relative Brain BA (UL crystal forms, oral vs Li2CO3, oral) [2, 6]: 74.12%
Cmax (plasma) [2, 7]: 4120 ng/mL
Tmax (plasma) [2, 7]: 24 h
t½_Lambda_z (plasma) [2, 8]: 12.9141 h
Relative Plasma BA (UL crystal forms, oral vs Li2CO3 oral) [2, 9]: 58.42%
BRAIN CONC., Time(h) 2.00 ([2]; rat, 4 mEq/kg lithium oral): 0.96 µg/g and 0.71 µg/g and 0.68 µg/g
PLASMA CONC, Time(h) 2.00 ([2]; rat, 4 mEq/kg lithium oral): 3430 ng/mL and 1780 ng/mL and 2310 ng/mL
BRAIN CONC., Time(h) 24.00 ([2]; rat, 4 mEq/kg lithium oral): 3.64 µg/g and 4.28 µg/g and 2.60 µg/g
PLASMA CONC, Time(h) 24.00 ([2]; rat, 4 mEq/kg lithium oral): 3850 ng/mL and 6010 ng/mL and 2500 ng/mL
BRAIN CONC., Time(h) 48.00 ([2]; rat, 4 mEq/kg lithium oral): 2.81 µg/g and 4.50 µg/g and 2.06 µg/g
PLASMA CONC, Time(h) 48.00 ([2]; rat, 4 mEq/kg lithium oral): 970 ng/mL and 1780 ng/mL and 850 ng/mL
BRAIN CONC., Time(h) 72.00 ([2]; rat, 4 mEq/kg lithium oral): 0.62 µg/g and 0.68 µg/g and 0.51 µg/g
PLASMA CONC, Time(h) 72.00 ([2]; rat, 4 mEq/kg lithium oral): 230 ng/mL and 400 ng/mL and 310 ng/mL

NC(=O)c1ccncc1.NC(=O)c1ccncc1.O=C([O-])/C=C/C(=O)[O-].[Li+].[Li+] [Compound 2, [Li2(fumarate)(isonicotinamide)2]n]
Stable? [1]: Yes
AUC (Cerebral)/AUC (Plasma) ([2]; rat, in vivo): 1.208
AUC(0-t) ([2]; rat, in vivo, po): 147 µg·h/mL
AUClast (brain) ([2]; rat, in vivo, po): 0.177 mg·h/g
Cmax (brain) ([2]; rat, in vivo, po): 4.0200 µg/g
Cmax (plasma) ([2]; rat, in vivo, po): 3976.7 ng/mL
Relative Brain BA (UL crystal forms, oral vs Li2CO3, oral) ([2]; rat, in vivo, po): 76.37%
Relative Plasma BA (UL crystal forms, oral vs Li2CO3 oral) ([2]; rat, in vivo, po): 54.52%
Tmax (brain) ([2]; rat, in vivo, po): 24 h
Tmax (plasma) ([2]; rat, in vivo, po): 24 h
t½_Lambda_z (brain) ([2]; rat, in vivo, po): 16.7775 h
t½_Lambda_z (plasma) ([2]; rat, in vivo, po): 14.0638 h

CNCC(=O)O.O.O=C([O-])c1cccnc1.[Li+] [Compound 9, [Li(nicotinate)(sarcosine)(water)]n]
Stable? [1]: No

O=C(O)C(=O)O.O=C(O)C(=O)O.O=C([O-])C(=O)O.[Li+].c1c[nH]cn1.c1c[nH]cn1 [Compound 11, [(imidazolium)2^+(Li(hydogen oxalate)(oxalate))^−(oxalic acid)]]
PXRD pattern after storage compared with initial pattern [1]: different
Stable? [1]: No

O=C(O)[C@@H]1CCCN1.O=C([O-])c1ccccc1.[Li+] [Compound 12, [Li(benzoate)(L-proline)]n]
Stable? [1]: Yes

O=C(O)[C@@H]1CCCN1.O=C([O-])c1ccccc1O.[Li+] [Compound 14, [Li(salicylate)(L-proline)]n]
Stable? [1]: Yes

O=C([O-])CCC(=O)[O-].[Li+].[Li+] [Compound 16, [Li2 (succinate)]n]
Stable? [1]: Yes

O=C([O-])c1ccccc1.[Li+] [Compound 18, [Li (benzoate)]n]
Stable? [1]: Yes

CNCC(=O)O.O.O=C([O-])c1ccc(O)cc1.[Li+] [Compound 19, [Li(sarcosine)(4-hydroxybenzoate)(water)]n]
Stable? [1]: No

CC(O)C(=O)[O-].CC(O)C(=O)[O-].NC(N)=O.O.O.[Li+].[Li+] (stereo not drawn) [Compound 21, [(Li2(lactate)2(water)2)(urea)]n]
Stable? [1]: No

NC(=O)c1ccncc1.O.O=C([O-])/C=C\C(=O)O.[Li+] [Compound 22, [Li(maleate)(isonicotinamide) (water)]n]
Stable? [1]: No

CC1=CC(=O)[N-]S(=O)(=O)O1.O.[Li+] [Compound 23, [Li(acesulfame)(water)]n]
Stable? [1]: No

NCCC(=O)O.NCCC(=O)O.O.O=C([O-])C(=O)[O-].[Li+].[Li+] [Compound 25, [Li2(oxalate)(beta-alanine)2(water)]n]
Stable? [1]: No

CC1(C)C2CCC1(CS(=O)(=O)[O-])C(=O)C2.CC1(C)C2CCC1(CS(=O)(=O)[O-])C(=O)C2.NC(N)=O.NC(N)=O.O.O.[Li+].[Li+] (stereo not drawn) [Compound 28, [Li2(camphorsulphonate)2(urea)2 (water)2]]
Stable? [1]: No

CC1(C)C2CCC1(CS(=O)(=O)[O-])C(=O)C2.CNCC(=O)O.O.O.[Li+] (stereo not drawn) [Compound 30, [Li(camphorsulfonate)(sarcosine)(water)2]]
Stable? [1]: No

NC(=O)c1ccncc1.NC(=O)c1ccncc1.NC(=O)c1ccncc1.NC(=O)c1ccncc1.NC(=O)c1ccncc1.NC(=O)c1ccncc1.NC(=O)c1ccncc1.NC(=O)c1ccncc1.O=C([O-])c1ccccc1O.O=C([O-])c1ccccc1O.O=C([O-])c1ccccc1O.O=C([O-])c1ccccc1O.[Li+].[Li+].[Li+].[Li+] [Compound 32, [Li2(salicylate)2(isonicotinamide)4]2]
Stable? [1]: No

O=C([O-])[O-].[Li+].[Li+] [Lithium carbonate, lithium carbonate, reference compound]
Cmax (brain) [2, 3]: 5.9900 µg/g
Tmax (brain) [2, 3]: 24 h
t½_Lambda_z (brain) [2, 4]: 13.7913 h
AUClast (brain) [2, 5]: 232.4100 mg·h/g
Relative Brain BA (UL crystal forms, oral vs Li2CO3, oral) [2, 6]: 100.00%
Cmax (plasma) [2, 7]: 8413.3 ng/mL
Tmax (plasma) [2, 7]: 24 h
t½_Lambda_z (plasma) [2, 8]: 7.3913 h
Relative Plasma BA (UL crystal forms, oral vs Li2CO3 oral) [2, 9]: 100.00%
BRAIN CONC., Time(h) 2.00 ([2]; rat, 4 mEq/kg lithium oral): 0.60 µg/g and 1.43 µg/g and 0.68 µg/g
PLASMA CONC, Time(h) 2.00 ([2]; rat, 4 mEq/kg lithium oral): 3020 ng/mL and 4820 ng/mL and 2720 ng/mL
BRAIN CONC., Time(h) 24.00 ([2]; rat, 4 mEq/kg lithium oral): 7.89 µg/g and 4.55 µg/g and 5.53 µg/g
PLASMA CONC, Time(h) 24.00 ([2]; rat, 4 mEq/kg lithium oral): 8720 ng/mL and 5320 ng/mL and 11200 ng/mL
BRAIN CONC., Time(h) 48.00 ([2]; rat, 4 mEq/kg lithium oral): 3.35 µg/g and 2.89 µg/g and 3.43 µg/g
PLASMA CONC, Time(h) 48.00 ([2]; rat, 4 mEq/kg lithium oral): 1290 ng/mL and 1180 ng/mL and 1600 ng/mL
BRAIN CONC., Time(h) 72.00 ([2]; rat, 4 mEq/kg lithium oral): 0.54 µg/g and 0.52 µg/g and 0.55 µg/g
PLASMA CONC, Time(h) 72.00 ([2]; rat, 4 mEq/kg lithium oral): 140 ng/mL and 60 ng/mL and 80 ng/mL

Li(adeninate)(water)3 [Compound 8]
Stable? [1]: No

[(imidazolium)2^+(Li(hydrogen malate)2(water))^−] [Compound 33]
Stable? [1]: No

[Li2 (fumarate)]n [Compound 15]
Stable? [1]: Yes

[Li2 (oxalate)]n [Compound 17]
Stable? [1]: Yes

[Li(camphorsulfonate)(water)2] [Compound 29]
Stable? [1]: No

[Li(hydrogen maleate)(sarcosine)(water)] [Compound 27]
Stable? [1]: No

[Li(pyridoxinate)(water)]n [Compound 10]
Stable? [1]: No

{[Li(malate) (water)2]•(imidazolium)}n [Compound 26]
Stable? [1]: No

{[Li(p-toluenesulfonate)]•H30}n [Compound 31]
Stable? [1]: No
